# Measured values taken from paper PMC5473904, “Epigenetic and antitumor effects of platinum(IV)-octanoato conjugates” (Scientific Reports, 2017).
# Key:
# [1] = test system: A2780cisR human ovarian carcinoma cells; test: MTT cytotoxicity, 72 h; format: cell-based; details: for RF, resistance factor: IC50 (resistant, A2780cisR)/IC50 (sensitive, A2780); for IC50: MTT, 72 h, platinum complexes
# Method: (§1) Cytotoxic activity of the compounds tested in the present work was screened on the panel of malignant and nonmalignant cell lines using the colorimetric MTT assay and 72 h of drug incubation period.
# (§2) Cell death was evaluated using a system based on the tetrazolium compound MTT [3-(4,5-dimethyl-2-thiazolyl)-2,5-diphenyl-2H-tetrazolium bromide]. The cells were seeded in 96-well tissue culture plates at a density of 10^4 A2780cisR, LNCaP, HSF cells/well, 3 × 10^3 CHO-K1 or 4 × 10^3 MCF7, HCT-116 and MRC5 pd30 cells/well in 100 μL of medium. After overnight incubation (16 h), the cells were treated with the compounds in a final volume of 200 μL/well. After additional 72 h, 10 μL of a freshly diluted MTT solution (2.5 mg mL^−1) was added to each well, and the plate was incubated at 37 °C in a humidified 5% CO2 atmosphere for 4 h. At the end of the incubation period, the medium was removed, and the formazan product was dissolved in 100 μL of DMSO. The cell viability was evaluated by measurement of the absorbance at 570 nm, using an Absorbance Reader SUNRISE TECAN SCHOELLER. IC50 values were calculated from curves constructed by plotting cell survival (%) versus drug concentration (μM). All experiments were made in triplicate. The reading values were converted to the percentage of control (% cell survival). Cytotoxic effects were expressed as IC50.
# [2] = test system: CHO-K1 Chinese hamster ovary cells; test: MTT cytotoxicity, 72 h; format: cell-based; details: platinum complexes
# Method: as §1, §2
# [3] = test system: HCT-116 human colorectal carcinoma cells; test: MTT cytotoxicity, 72 h; format: cell-based; details: for IC50: MTT, 72 h, platinum complexes and decitabine
# Method: as §1, §2
# [4] = test system: MCF-7 human breast cancer cells; test: MTT cytotoxicity, 72 h; format: cell-based; details: platinum complexes
# Method: as §1, §2
# [5] = test system: PNT1a; test: MTT cytotoxicity, 72 h; format: cell-based; details: platinum complexes
# [6] = test system: HCT-116 cells; test: Cellular platinum accumulation/distribution by ICP-MS; format: cell-based, human; details: HCT-116, 24 h, 0.35 µM
# [7] = test system: A2780 cells; test: Pt accumulation in A2780 cells with and without serum, BSA or lipoproteins; format: cell-based, human; details: A2780, 10 μM, 4 h
# Method: Interactions with serum proteins
# The trends observed in the results of the in vivo antitumor activity experiments, such as the tissue biodistribution (Fig. S2A), blood levels (Fig. S2B), and cellular accumulation (Table 2) of Pt(IV) complexes could be also related to their sequestration by plasma proteins, mainly by 8 human serum albumin . Thus, the accumulation experiments in cellulo were carried out employing A2780 cells without serum (and therefore without BSA) in the culture medium. As shown in Fig. S3, when passing from the treatment in complete medium (+FBS) to the […]
# Supplementary Figure S3: Pt accumulation in A2780 cells treated with Pt(IV) prodrugs […]
# treatment in complete medium (+FBS) and in serum-free medium (- FBS). Data are means of at least three replicates and were tested using the two sample t-test (***p<0.001). […]
# medium supplemented with 10% FBS contains 30 µM BSA, which is known to transport octanoate9,10, and 300 μg mL-1 cholesterol in the most lipophilic component, i.e. lipoproteins11, which are known to transport lipophilic drugs12,13. To verify whether the accumulation of Pt(IV)diOA could be mainly affected by BSA or lipoproteins, the experiments were repeated in serum-free medium supplemented with BSA (-FBS, + BSA) or LPC, lipoprotein-rich cholesterol (-FBS + LPC), respectively (see experimental part). As […]
# (1 picture or pasted object on this page, not shown here)
# (control, -FBS), in serum-free medium supplemented with 30 µM BSA (-FBS, + BSA), with lipoproteins (-FBS + LPC), and in complete medium (+FBS). Data are means of at least three replicates and were tested using the two sample t-test (***p<0.001). […]
# Co.) and transferred into a microwave Teflon vessel. Subsequently, samples were submitted to the standard procedure using a speed microwave. After cooling, each mineralized sample was analyzed for platinum by ICP-MS (ThermoOptek X Series 2). Instrumental settings were optimized to achieve maximum sensitivity for platinum. For quantitative determination, the most abundant isotopes of platinum and indium (used as internal standard) were measured at m/z 195 and 115, respectively.
# Accumulation of platinum in tumor cells treated with Pt(IV) complexes and cisplatin (in cellulo experiments) in the absence of serum. A2780 cells were seeded in 10 mm Petri dishes and treated with the platinum complexes (10 μM) for 4 h in complete medium, i.e. + 10 % FBS (HyClone, GE Healthcare). At time zero, 100 μL of medium was taken out from each sample to check the extracellular Pt concentration. […]
# The level of Pt found in cells after drug treatment and normalized 6 upon the cell number (cellular Pt accumulation) was expressed as ng Pt per 10 cells. […]
Compound,"RF, resistance factor [1]",IC50 [1],IC50 [2],IC50 [3],IC50 [4],IC50 [5],Platinum in cytosol [6],Platinum in nucleus [6],"Increase of cytotoxicity vs. cisplatin ([3]; HCT-116, Fig. 2B)","Increase of cytotoxicity vs. Pt(IV)diAc ([3]; HCT-116, Fig. 2D)",Change of Pt accumulation from complete medium (+FBS) to serum-free medium (-FBS) [7],Effect of BSA addition to serum-free medium on Pt accumulation ([7]; -FBS + BSA),Effect of LPC (lipoprotein-rich cholesterol) supplementation of serum-free medium on Pt accumulation ([7]; -FBS + LPC)
"CC(=O)[O][Pt]([NH2])([NH2])([Cl])([Cl])[O]C(C)=O [Pt(IV)diAc, cis, cis, trans-[Pt(IV)(NH3)2Cl2(Ac)2]]",4.2,22 ± 3.1 µM,14.5 ± 0.7 µM,35.3 ± 1.4 µM,51 ± 4 µM,2.48 ± 0.1 µM,2.1 ± 0.3 pg Pt/µg protein,4.6 ± 0.5 pg Pt/µg protein,–,–,–,–,–
"N.N.[Cl][Pt][Cl] [cisplatin, reference compound]",4.9,13.8 ± 0.1 µM,19.9 ± 1 µM,5.9 ± 0.9 µM,17.4 ± 1.9 µM,2.5 ± 0.32 µM,3.6 ± 0.2 pg Pt/µg protein,4.1 ± 0.3 pg Pt/µg protein,–,–,–,–,–
"CCCCCCCC(=O)[O][Pt]([NH2])([NH2])([Cl])([Cl])[O]C(=O)CCCCCCC [Pt(IV)diOA, cis, cis, trans-[Pt(IV)(NH3)2Cl2(OA)2]]",0.7,0.029 ± 0.002 µM,0.14 ± 0.02 µM,0.017 ± 0.003 µM,0.038 ± 0.006 µM,0.022 ± 0.001 µM,59 ± 7 pg Pt/µg protein,189 ± 9 pg Pt/µg protein,347 x,2076 x,3 fold,negligible effect,decreased Pt accumulation
"CCCC(CCC)C(=O)[O][Pt]([NH2])([NH2])([Cl])([Cl])[O]C(=O)C(CCC)CCC [Pt(IV)diVPA, cis, cis, trans-[Pt(IV)(NH3)2Cl2(VPA)2]]",–,–,–,–,–,–,–,–,–,–,no significant change,–,–
